pIC50: −log10 of the molar value.
Assays:
[1] = biological target: T1, human BTK-WT (Homo sapiens, UniProt Q06187); experiment: BTK-Y223 autophosphorylation in HEK293 cells stably expressing BTK-WT (HTRF); format: cell-based; conditions: 2 hours treatment
T1 construct: host or cells: HEK293 (ATCC CRL1573), lentiviral transduction, puromycin selected
Experimental: (§1) HEK293 cells (purchased from ATCC, CRL1573) stably expressing wild type BTK or mutant C481S BTK were generated by lentiviral transduction of constructs containing human BTK-WT or BTK-C481S mutant (Genecopoeia, Lv201 vector). Cells expressing BTK proteins were selected with puromycin treatment (1 μM). The protein expression was confirmed by western blotting of BTK and BTK-Y223 autophosphorylation. The cells were cultured in MEM medium (Sigma M2279), 10% heat-Inactivated FBS (Gibco 10100), penicillin streptomycin (Thermal Fisher 15140122), and puromycin (InvivoGen QLL-41-03). The BTK-Y223 phosphorylation was quantified using BTK phospho-Y223 kit (Cisbio 63ADK017PEG). HEK293/BTK stable cells were seeded in a 96-well plate at a density of 10 thousand cells/well in a total volume of 100 μL of media. Cells were incubated overnight in a humidified, 5% CO2 cell culture incubator at 37° C. The next day, the cells were treated with diluted compounds in a humidified, 5% CO2 cell culture incubator at 37° C. for 2 hours. The medium was removed from each well, and 50 μL of 1× lysis buffer from the assay kit was added into each well. The cells were incubated for 30 min at room temperature with shaking. Then 16 μL of lysate was transferred to a PROXIPLATE 384-plate (PerkinElmer 6008230), followed by addition of 4 μL of HTRF pre-mixed antibodies. After incubation overnight at room temperature, fluorescence signals in the plates were read on PHERAstar FSX instrument, using HTRF settings ([…]).
(§2) The relative cellular pBTK inhibition was calculated by HTRF signal change: The average of positive control well reading, and average of negative control reading were used as controls to calculate inhibition percentage.
(§3) The data was input into GraphPad Prism, using function “log(inhibitor) vs. response—Variable slope (four parameters)” to get IC50 values.

[2] = biological target: T2, BTK-C481S mutant (Homo sapiens, UniProt Q06187, C481S); experiment: BTK-Y223 autophosphorylation in HEK293 cells stably expressing BTK-C481S (HTRF); format: cell-based; conditions: 2 hours treatment
T2 construct: host or cells: HEK293 (ATCC CRL1573), lentiviral transduction, puromycin selected
T2 sequence (Q06187 whole entry C481S): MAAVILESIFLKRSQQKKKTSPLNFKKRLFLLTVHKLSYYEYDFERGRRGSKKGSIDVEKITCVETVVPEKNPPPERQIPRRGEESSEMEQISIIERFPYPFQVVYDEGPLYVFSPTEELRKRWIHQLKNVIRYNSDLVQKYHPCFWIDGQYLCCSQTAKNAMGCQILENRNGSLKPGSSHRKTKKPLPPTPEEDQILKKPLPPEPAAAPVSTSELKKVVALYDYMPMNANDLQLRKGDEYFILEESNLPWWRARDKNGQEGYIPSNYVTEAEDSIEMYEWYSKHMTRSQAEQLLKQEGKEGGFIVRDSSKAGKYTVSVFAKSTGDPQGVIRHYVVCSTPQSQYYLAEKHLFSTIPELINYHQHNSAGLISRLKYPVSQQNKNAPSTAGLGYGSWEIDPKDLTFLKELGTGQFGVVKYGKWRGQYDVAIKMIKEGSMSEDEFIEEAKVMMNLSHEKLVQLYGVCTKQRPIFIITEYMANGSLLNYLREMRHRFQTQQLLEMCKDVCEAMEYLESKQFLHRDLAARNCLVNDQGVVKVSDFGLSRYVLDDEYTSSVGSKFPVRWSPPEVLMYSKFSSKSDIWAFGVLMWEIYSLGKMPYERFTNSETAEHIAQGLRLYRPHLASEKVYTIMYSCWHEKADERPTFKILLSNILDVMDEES
Experimental: as §1, §2, §3

[3] = biological target: T3, full-length human BTK-WT (Homo sapiens, UniProt Q06187); experiment: BTK-WT kinase activity assay (ADP-Glo); format: biochemical; conditions: BTK kinase inhibition, 30 min preincubation, 90 min reaction
T3 construct: The full-length human BTK-WT (ABCAM205800); purchased Abcam ABCAM205800; host or cells: Baculovirus infected Sf9 cells
T3 sequence (Q06187 whole entry): as the sequence (Q06187 whole entry C481S) above, with S481C counted along it
Experimental: (§4) These assays are to determine the degree of inhibition of the BTK-WT and BTK-C481S mutant kinase activity by measuring the amount of ADP produced during the enzymatic reactions. […] Compounds, BTK enzymes, ATP and substrate were all prepared in ix kinase assay buffer by diluting 5× stock of kinase assay buffer III (Signal Chem K03-09), in H2O, and adding DTT (Thermo ScientificA39255) for a final concentration of 50 μM. […] Then the plate was kept shaking for 30 min at room temperature to allow the binding of the compounds to the proteins. After the preincubation, ATP and the substrate, a total of 5 μL was added into each well. The plate was then spun down at 1000 rpm for 2 minutes and kept shaking for 90 min at room temperature. ADP detection was performed following the guidance from the ADP-Glo Kinase Assay kits (Promega V9101). Briefly, 10 μL of ADP-Glo reagent was added into each well. The plate was then spun down at 1000 rpm for 2 minutes and kept shaking at room temperature for 60 min. Twenty μL of the kinase detection solution was added into each well. The plate was incubated at room temperature for 30 min in dark. The plates were read for luminescence signals in Tecan M1000 directly following the 30 min incubation. Relative inhibition of BTK kinase activities were analyzed by calculating the luminescence signal change:
(§5) Data was input into GraphPad Prism, and the IC50 values were calculated using function “log(inhibitor) vs. response—Variable slope (four parameters)”.

[4] = biological target: T4, BTK-C481S (Homo sapiens, UniProt Q06187, C481S); experiment: BTK-C481S kinase activity assay (ADP-Glo); format: biochemical; conditions: BTK kinase inhibition, 30 min preincubation, 90 min reaction
T4 construct: purchased Abcam ABCAM 204166; host or cells: Baculovirus infected Sf9 cells
T4 sequence (Q06187 whole entry C481S): as the sequence (Q06187 whole entry C481S) above
Experimental: as §4, §5

[5] = test system: human TMD-8 diffuse large B-cell lymphoma cells; experiment: BTK-dependent cell proliferation in human TMD-8 cells (CellTiter-Glo); format: cell-based; conditions: TMD8, 72 h, TMD-8 DLBCL cells, 3 days, absolute IC50
Experimental: The human TMD-8 DLBCL cancer cells were cultured in RPMI media with high glucose and glutamine (Genesee 25-506), 20% heat-inactivated FBS (Gibco 10100), penicillin streptomycin (Thermal Fisher 15140122) and 1 mM sodium pyruvate (Thermal Fisher 11360070). TMD-8 cells were centrifuged at 300 g for 5 minutes and the cells were resuspended into fresh cell culture media. The cells were counted and made to a cell stock of 1.3 million/mL. Then 75 μL of cells were seeded into each well of a white 96-well cell culture plate (Corning 353286). A serial dilution of compounds was made and 25 μL was added to each well. The plates were incubated for 3 days in a humidified, 5% CO2 atmosphere at 37° C. Inhibition of cell growth by the compounds was determined by measuring the ATP level generated by the cells with the Cell Titer-Glo Luminescent Cell Viability Kit (Promega G7572). Assay procedures were conducted according to the protocols provided by Promega. In brief, the treated cell-culture plate and its contents were equilibrated at room temperature for approximately 30 minutes. 100 μL of CellTiter-Glo® Reagent was added into each cell-culture well, and contents were mixed for 2 minutes on an orbital shaker to induce cell lysis. The plate was incubated at room temperature for 10 minutes to stabilize luminescent signal. The resulting luminescence signal was immediately read using a TECAN plate reader. The relative cell grow inhibition was calculated by Cell Titer-Glo luminescent signal change.
The average readings of media-only wells and the readings of positive control wells (no compound treatment) were used to calculate response percentage.
The data was input into GraphPad Prism, and the curve fitting was made using function “log(inhibitor) vs. response—Variable slope (four parameters)”. The interpolation function was used to calculate absolute IC50 values.

T1 sequence (Q06187 whole entry): as the sequence (Q06187 whole entry C481S) above, with S481C counted along it

SMILES	pIC50 [1]	pIC50 [2]	pIC50 [3]	pIC50 [4]	pIC50 [5]
COc1ccc(F)cc1C(=O)NCc1ccc(-n2nc(C(C)C)c(N)c2C(N)=O)cc1 [Example A1, 4-amino-1-(4-((5-fluoro-2-methoxybenzamido)methyl)phenyl)-3-isopropyl-1H-pyrazole-5-carboxamide]	7.26	6.94	8.25	8.44	7.33
CCOc1cc(CNC(=O)c2cc(F)ccc2OC)ccc1-n1nc(C(C)C)c(N)c1C(N)=O [Example A5, 4-amino-1-(2-ethoxy-4-((5-fluoro-2-methoxybenzamido)methyl)phenyl)-3-isopropyl-1H-pyrazole-5-carboxamide]	–	–	7.96	7.96	6.62
COc1ccccc1C(=O)NCc1ccc(-n2nc(C(C)C)c(N)c2C(N)=O)cc1 [Example A9, 4-amino-3-isopropyl-1-(4-((2-methoxybenzamido)methyl)phenyl)-1H-pyrazole-5-carboxamide]	7.08	6.77	7.85	7.85	6.85
CC(C)c1nn(-c2ccc(CNC(=O)c3cccc4c3OCC4)cc2)c(C(N)=O)c1N [Example A10, 4-amino-1-(4-((2,3-dihydrobenzofuran-7-carboxamido)methyl)phenyl)-3-isopropyl-1H-pyrazole-5-carboxamide]	–	–	7.21	7.22	–
COc1ccc(F)cc1C(=O)NCc1ccc(-n2nc(C(C)C)c(N)c2C(N)=O)c(F)c1 [Example A11, 4-amino-1-(2-fluoro-4-((5-fluoro-2-methoxybenzamido)methyl)phenyl)-3-isopropyl-1H-pyrazole-5-carboxamide]	–	–	7.46	7.57	–
COc1ccc(F)cc1C(=O)NCc1ccc(-n2nc(C3CCOCC3)c(N)c2C(N)=O)cc1 [Example A12, 4-amino-1-(4-((5-fluoro-2-methoxybenzamido)methyl)phenyl)-3-(tetrahydro-2H-pyran-4-yl)-1H-pyrazole-5-carboxamide]	6.89	6.74	7.59	8.24	6.80
COc1ccc(F)cc1C(=O)NCc1ccc(-n2nc(C3CCCOC3)c(N)c2C(N)=O)cc1 (stereo not drawn) [Example A13, 4-amino-1-(4-((5-fluoro-2-methoxybenzamido)methyl)phenyl)-3-(tetrahydro-2H-pyran-3-yl)-1H-pyrazole-5-carboxamide]	7.24	6.92	8.36	8.57	7.02
COc1ccc(F)cc1C(=O)NCc1ccc(-n2nc(-c3cccs3)c(N)c2C(N)=O)cc1 [Example A14, 4-amino-1-(4-((5-fluoro-2-methoxybenzamido)methyl)phenyl)-3-(thiophen-2-yl)-1H-pyrazole-5-carboxamide]	7.09	6.68	8.10	8.51	7.02
COc1ccc(F)cc1C(=O)NCc1ccc(-n2nc(C3CCCC3)c(N)c2C(N)=O)cc1 [Example A15, 4-amino-3-cyclopentyl-1-(4-((5-fluoro-2-methoxybenzamido)methyl)phenyl)-1H-pyrazole-5-carboxamide]	7.57	7.08	8.43	8.38	7.54
COc1ccc(F)cc1C(=O)NCc1ccc(-n2nc(C3CCOC3)c(N)c2C(N)=O)cc1 (stereo not drawn) [Example A16, 4-amino-1-(4-((5-fluoro-2-methoxybenzamido)methyl)phenyl)-3-(tetrahydrofuran-3-yl)-1H-pyrazole-5-carboxamide]	6.92	6.64	7.82	7.96	6.92
COc1ccc(F)cc1C(=O)NCc1ccc(-n2nc(N3CCOCC3)c(N)c2C(N)=O)cc1 [Example A17, 4-amino-1-(4-((5-fluoro-2-methoxybenzamido)methyl)phenyl)-3-morpholino-1H-pyrazole-5-carboxamide]	–	–	7.06	7.03	–
CCOc1cc(CNC(=O)c2cc(F)ccc2OC)cc(F)c1-n1nc(C(C)C)c(N)c1C(N)=O [Example A19, 4-amino-1-(2-ethoxy-6-fluoro-4-((5-fluoro-2-methoxybenzamido)methyl)phenyl)-3-isopropyl-1H-pyrazole-5-carboxamide]	–	–	7.20	7.17	–
COc1ccc(F)cc1C(=O)NCc1ccc(-n2nc(C3CCC(F)(F)CC3)c(N)c2C(N)=O)cc1 [Example A22, 4-amino-3-(4,4-difluorocyclohexyl)-1-(4-((5-fluoro-2-methoxybenzamido)methyl)phenyl)-1H-pyrazole-5-carboxamide]	7.13	6.92	8.09	8.10	6.96

Reference: patent publication US20220169645A1, “COMPOUNDS AS BRUTON TYROSINE KINASE INHIBITORS, PREPARATION METHODS AND MEDICAL APPLICATIONS THEREOF” (Eternity Bioscience Inc., priority 2020, published 2022)
